Measured values: paper PMC10206591, “Identification of small molecules capable of enhancing viral membrane fusion” (Virology Journal, 2023)
“And” between values parts separate entries of the source, which are not always exact repeats. Equal entries are not always repeated.

Tests used:
[1] = system: SARS-CoV-2 S-mediated membrane fusion in the presence of TMPRSS2
[2] = Cell viability, Cell-Titer Glo (ATP levels), Hek 293T; type: cell-based; settings: human; for CC50 / CC90: 48 h
Experimental: (§1) The toxicity of the compounds was evaluated with Cell-Titer Glo (Promega) following the manufacturer’s indications. Briefly, cells were seeded (~ 1 × 10^4 cells/plate) in an opaque white 96-well plate and treated with the appropriate compound at the indicated concentration for 48 h. Next, 100 µl of CellTiter-Glo® reagent was added and let the luminescence signal stabilizes for 10 min. The luminescence was recorded on a VictorX multi-plate reader (Perking Elmer, Waltham, MA, USA).
(§2) Fig. 6 Toxicity of hit compounds. A, B The toxicity in Hek 293T and Vero E6 cells (A and B, respectively) was analyzed after incubating the compounds at the indicated concentration for 48 h. Toxicity was analyzed by measuring ATP levels using the Cell-Titer Glo assay (Promega) following the manufacturer’s indications. Dots represent the average of at least three independent experiments. C The CC10, CC50, and CC90 values were calculated with the data shown in panels A and B TEXT PRINTED IN THE PICTURE: (C) Latanoprost: Hek293T CC10 (μM): 16.2; Hek293T CC50 (μM): 63.9; Hek293T CC90 (μM): 270; Vero E6 CC10 (μM): 76.9; Vero E6 CC50 (μM): 124; Vero E6 CC90 (μM): 171 | (C) Diperodon: Hek293T CC10 (μM): 14.2; Hek293T CC50 (μM): 41; Hek293T CC90 (μM): 98.3; Vero E6 CC10 (μM): 24; Vero E6 CC50 (μM): 88; Vero E6 CC90 (μM): 153 | (C) Ethynylestradiol: Hek293T CC10 (μM): 11.8; Hek293T CC50 (μM): 49.9; Hek293T CC90 (μM): 169.9; Vero E6 CC10 (μM): 13.6; Vero E6 CC50 (μM): 96.6; Vero E6 CC90 (μM): 224 | (C) Simvastatin: Hek293T CC10 (μM): 8.0; Hek293T CC50 (μM): 34.2; Hek293T CC90 (μM): 125.8; Vero E6 CC10 (μM): 3.11; Vero E6 CC50 (μM): 6.02; Vero E6 CC90 (μM): 61.2 | (C) Rabeprazol: Hek293T CC10 (μM): 14.3; Hek293T CC50 (μM): 38.1; Hek293T CC90 (μM): 83.6; Vero E6 CC10 (μM): 51.6; Vero E6 CC50 (μM): 122.8; Vero E6 CC90 (μM): 194 | (C) Ethaverine: Hek293T CC10 (μM): 9.7; Hek293T CC50 (μM): 43.8; Hek293T CC90 (μM): 120.7; Vero E6 CC10 (μM): 45; Vero E6 CC50 (μM): 119.8; Vero E6 CC90 (μM): 194.7

Hek 293T cells [3] = assay: as above; type: cell-based; settings: 48 h, Fig. 6C
Experimental: as §1, §2

Vero E6 cells = assay: Cell viability, Cell-Titer Glo (ATP levels), Vero E6; type: cell-based; settings: 48 h, Fig. 6C
Experimental: as §1, §2

[4] = as above; type: cell-based; settings: African green monkey, Fig. 6C; for CC50 / CC90: 48 h
Experimental: as §1, §2

[5] = system: SARS-CoV-2 S-mediated membrane fusion
[6] = system: Nipah virus membrane fusion; type: cell-based; settings: Hek 293T, NiV F and G, 48 h
SARS-CoV-2 = type: cell-based
IAV/WSN/33 = type: cell-based, Influenza A virus
Hek 293T cells [7] = assay: Cell viability, Cell-Titer Glo (ATP levels), Hek 293T; type: cell-based; settings: Hek 293T transfected with TMPRSS2 or eYFP, Fig. S2
[8] = Table 1, Hek 293T, read-out: CC50
[9] = Fig. 6C, read-out: Hek293T CC50
[10] = Fig. 6C, read-out: Hek293T CC90

Question: Which “Activity index (Fusion % at CC50/CC50), TMPRSS2” value [1] does the source give for `O=C(Nc1ccccc1)OCC(CN1CCCCC1)OC(=O)Nc1ccccc1` (stereo not drawn) [Diperodon] here?
Answer: 3,39

Question: And the “Fusion % at CC50, TMPRSS2” value [1]?
Answer: 138,77%

Question: And the CC50 [2, 8]?
Answer: 41 µM

Question: And the CC50 [2, 9]?
Answer: 41 µM

Question: And the CC90 [2, 10]?
Answer: 98.3 µM

Question: What about the “Hek293T CC10” value (Hek 293T cells [3]) of the same compound?
Answer: 14.2 µM

Question: And the “Vero E6 CC10” value (Vero E6 cells)?
Answer: 24 µM

Question: What about the CC50 [4] of the same compound?
Answer: 88 µM

Question: What about the CC90 [4] of the same compound?
Answer: 153 µM

Question: And the “Activity index (Fusion % at CC50/CC50), NO TMPRSS2” value [5]?
Answer: 3,03

Question: And the “Fusion % at CC50, NO TMPRSS2” value [5]?
Answer: 123,98%

Question: With `CCOc1ccc(Cc2nccc3cc(OCC)c(OCC)cc23)cc1OCC` [Ethaverine] as the compound, how does the “effect on NiV-induced membrane fusion (in words)” value [6] read?
Answer: enhance viral-mediated membrane fusion in a mild dose-dependent manner

Question: What about the “effect on SARS-CoV-2 viral titers (in words)” value (SARS-CoV-2) of the same compound?
Answer: did not increase or accelerate the growth

Question: What about the “Activity index (Fusion % at CC50/CC50), TMPRSS2” value [1] of the same compound?
Answer: 9,56

Question: And the “Fusion % at CC50, TMPRSS2” value [1]?
Answer: 419,22%

Question: What about the “effect on IAV titers (in words)” value (IAV/WSN/33) of the same compound?
Answer: did not increase viral titers

Question: And the CC50 [2, 8]?
Answer: 43.8 µM

Question: What about the CC50 [2, 9] of the same compound?
Answer: 43.8 µM

Question: What about the CC90 [2, 10] of the same compound?
Answer: 121 µM

Question: And the “Hek293T CC10” value (Hek 293T cells [3])?
Answer: 9.7 µM

Question: What about the “Vero E6 CC10” value (Vero E6 cells) of the same compound?
Answer: 45 µM

Question: What about the CC50 [4] of the same compound?
Answer: 120 µM

Question: What about the CC90 [4] of the same compound?
Answer: 195 µM

Question: What about the “Activity index (Fusion % at CC50/CC50), NO TMPRSS2” value [5] of the same compound?
Answer: 2,86

Question: And the “Fusion % at CC50, NO TMPRSS2” value [5]?
Answer: 125,39%

Question: With `C#C[C@]1(O)CC[C@H]2[C@@H]3CCc4cc(O)ccc4[C@H]3CC[C@@]21C` [Ethynylestradiol] as the compound, how does the “effect on NiV-induced membrane fusion (in words)” value [6] read?
Answer: enhance viral-mediated membrane fusion in a mild dose-dependent manner

Question: And the “SARS-CoV-2 titer, Average” value (SARS-CoV-2)?
Answer: 2.6x10^6 pfu/mL and 3.6x10^6 pfu/mL and 5.0x10^6 pfu/mL

Question: And the “effect on SARS-CoV-2 viral titers (in words)” value (SARS-CoV-2)?
Answer: increased viral titers

Question: What about the “toxicity in the presence of TMPRSS2 (in words)” value (Hek 293T cells [7]) of the same compound?
Answer: compound toxicity was not affected by the presence of the cellular protease

Question: What about the “Activity index (Fusion % at CC50/CC50), TMPRSS2” value [1] of the same compound?
Answer: 6,27

Question: What about the “Fusion % at CC50, TMPRSS2” value [1] of the same compound?
Answer: 312,60%

Question: What about the “effect on IAV titers (in words)” value (IAV/WSN/33) of the same compound?
Answer: increases IAV titers by approximately one log

Question: And the CC50 [2, 8]?
Answer: 49.9 µM

Question: And the CC50 [2, 9]?
Answer: 49.9 µM

Question: What about the CC90 [2, 10] of the same compound?
Answer: 170 µM

Question: What about the “Hek293T CC10” value (Hek 293T cells [3]) of the same compound?
Answer: 11.8 µM

Question: And the “Vero E6 CC10” value (Vero E6 cells)?
Answer: 13.6 µM

Question: What about the CC50 [4] of the same compound?
Answer: 96.6 µM

Question: And the CC90 [4]?
Answer: 224 µM

Question: And the “Activity index (Fusion % at CC50/CC50), NO TMPRSS2” value [5]?
Answer: 3,25

Question: And the “Fusion % at CC50, NO TMPRSS2” value [5]?
Answer: 162,00%

Question: What about the “increase in viral-induced membrane fusion (in words)” value (“increase” below) [5] of the same compound?
Answer: stronger inducers

Question: Which “Activity index (Fusion % at CC50/CC50), TMPRSS2” value [1] does the source give for `CC(C)OC(=O)CCC/C=C\C[C@@H]1[C@@H](CC[C@@H](O)CCc2ccccc2)[C@H](O)C[C@@H]1O` [Latanoprost] here?
Answer: 2,39

Question: And the “Fusion % at CC50, TMPRSS2” value [1]?
Answer: 152,75%

Question: And the CC50 [2, 8]?
Answer: 63.9 µM

Question: And the CC50 [2, 9]?
Answer: 63.9 µM

Question: And the CC90 [2, 10]?
Answer: 270 µM

Question: What about the “Hek293T CC10” value (Hek 293T cells [3]) of the same compound?
Answer: 16.2 µM

Question: What about the “Vero E6 CC10” value (Vero E6 cells) of the same compound?
Answer: 76.9 µM

Question: And the CC50 [4]?
Answer: 124 µM

Question: And the CC90 [4]?
Answer: 171 µM

Question: What about the “Activity index (Fusion % at CC50/CC50), NO TMPRSS2” value [5] of the same compound?
Answer: 1,11

Question: And the “Fusion % at CC50, NO TMPRSS2” value [5]?
Answer: 70,98%

Question: What about the “increase” value [5] of the same compound?
Answer: stronger inducers

Question: For `COCCCOc1ccnc(C[S+]([O-])c2nc3ccccc3[nH]2)c1C` (stereo not drawn) [Rabeprazol], which “effect on NiV-induced membrane fusion (in words)” value [6] is on record?
Answer: enhance viral-mediated membrane fusion in a mild dose-dependent manner

Question: What about the “SARS-CoV-2 titer, Average” value (SARS-CoV-2) of the same compound?
Answer: 3.2x10^6 pfu/mL and 4.2x10^6 pfu/mL and 6.1x10^6 pfu/mL

Question: And the “effect on SARS-CoV-2 viral titers (in words)” value (SARS-CoV-2)?
Answer: increased viral titers

Question: And the “Activity index (Fusion % at CC50/CC50), TMPRSS2” value [1]?
Answer: 6,39

Question: And the “Fusion % at CC50, TMPRSS2” value [1]?
Answer: 243,51%

Question: What about the “effect on IAV titers (in words)” value (IAV/WSN/33) of the same compound?
Answer: did not increase viral titers

Question: What about the CC50 [2, 8] of the same compound?
Answer: 38.1 µM

Question: And the CC50 [2, 9]?
Answer: 38.1 µM

Question: And the CC90 [2, 10]?
Answer: 83.6 µM

Question: What about the “Hek293T CC10” value (Hek 293T cells [3]) of the same compound?
Answer: 14.3 µM

Question: What about the “Vero E6 CC10” value (Vero E6 cells) of the same compound?
Answer: 51.6 µM

Question: What about the CC50 [4] of the same compound?
Answer: 123 µM

Question: And the CC90 [4]?
Answer: 194 µM

Question: And the “Activity index (Fusion % at CC50/CC50), NO TMPRSS2” value [5]?
Answer: 4,70

Question: And the “Fusion % at CC50, NO TMPRSS2” value [5]?
Answer: 179,16%

Question: For `CCC(C)(C)C(=O)O[C@H]1C[C@@H](C)C=C2C=C[C@H](C)[C@H](CC[C@@H]3C[C@@H](O)CC(=O)O3)[C@H]21` [Simvastatin], which “Activity index (Fusion % at CC50/CC50), TMPRSS2” value [1] is on record?
Answer: 4,79

Question: What about the “Fusion % at CC50, TMPRSS2” value [1] of the same compound?
Answer: 163,57%

Question: What about the CC50 at 48 h [2, 9] of the same compound?
Answer: 34.2 µM

Question: What about the CC90 at 48 h [2, 10] of the same compound?
Answer: 126 µM

Question: And the CC50 at 48 h [2, 8]?
Answer: 34.2 µM

Question: What about the “Hek293T CC10” value (Hek 293T cells [3]) of the same compound?
Answer: 8.0 µM

Question: What about the CC50 (Vero E6 cells) of the same compound?
Answer: 6.02 µM

Question: What about the “Vero E6 CC10” value (Vero E6 cells) of the same compound?
Answer: 3.11 µM

Question: What about the CC50 at 48 h [4] of the same compound?
Answer: ~6 µM

Question: What about the CC90 at 48 h [4] of the same compound?
Answer: 61.2 µM

Question: What about the “Activity index (Fusion % at CC50/CC50), NO TMPRSS2” value [5] of the same compound?
Answer: 5,03

Question: And the “Fusion % at CC50, NO TMPRSS2” value [5]?
Answer: 172,00%

Question: What about the Z-score [5] of the same compound?
Answer: 1,72

Question: What about the “increase” value [5] of the same compound?
Answer: stronger inducers

Question: Which Z-score [5] does the source give for `CCCOc1ccccc1-c1nc2nn[nH]c2c(=O)[nH]1` [Zaprinast] here?
Answer: 1,64

Question: With `O=P(O)(O)C(O)(Cn1ccnc1)P(=O)(O)O` [Zoledronic acid hydrate] as the compound, how does the Z-score [5] read?
Answer: 2,27

Question: Which Z-score [5] does the source give for Meclocycline sulfosalicylate here?
Answer: 5,55

Question: With Tyloxapol as the compound, how does the Z-score [5] read?
Answer: 3,89
